Test results as given in patent US10959961B2, “Methods of administering anionic cannabinoid molecules dissolved in water” (priority 2018, dated 2021).
Several values for one entry are separate records, joined by “and”; a condition that tells them apart may be missing. Equal entries are not always repeated.

Assays:
[1] = Color of phenolate in carbonate/bicarbonate buffer at variable pH (Example 19); type: physicochemical; conditions: approximately 1 gram-per-liter
Procedure: 1 gram of cannabidiol was dissolved in 6.6 milliliters of 0.5 molar potassium hydroxide in ethanol to produce 2-[(1R,6R)-6-isopropenyl-3-methylcyclohex-2-en-1-yl]-3-hydroxy-5-pentylphenolate. The solution was then diluted with 100 millimolar sodium carbonate in water to a final volume of 50 milliliters to produce a solution comprising 2-[(1R,6R)-6-isopropenyl-3-methylcyclohex-2-en-1-yl]-3-hydroxy-5-pentylphenolate at approximately 20-grams-per-liter. 0.5 milliliters of the 2-[(1R,6R)-6-isopropenyl-3-methylcyclohex-2-en-1-yl]-3-hydroxy-5-pentylphenolate solution was added to each of 25 test tubes containing 9.5 milliliters of 100 millimolar (0.1 M) carbonate/bicarbonate (CO3^2−/HCO3^−) buffer according to Table 1. Each test tube contained approximately 10 milligrams of 2-[(1R,6R)-6-isopropenyl-3-methylcyclohex-2-en-1-yl]-3-hydroxy-5-pentylphenolate at a concentration of approximately 1 gram-per-liter. pH's were confirmed by multiple different measurements.
It was expected that 2-[(1R,6R)-6-isopropenyl-3-methylcyclohex-2-en-1-yl]-3-hydroxy-5-pentylphenolate would reform cannabidiol at pH's below a threshold pH as evidenced by an expected color change from purple (indicative of 2-[(1R,6R)-6-isopropenyl-3-methylcyclohex-2-en-1-yl]-3-hydroxy-5-pentylphenolate) to colorless (indicative of cannabidiol).

[2] = system: healthy, consenting adults; assay: Qualitative assessment of pharmacokinetics in humans, oral self-administration (Example 23); type: in vivo, human
Procedure: Approximately 60 milligrams of 2-[(1R,6R)-6-isopropenyl-3-methylcyclohex-2-en-1-yl]-3-hydroxy-5-pentylphenolate prepared from crude industrial hemp extract was dissolved in water as described in Example 16, buffered to a pH of 9.1, and added to a 296 milliliter bottle of DASANI® purified water. […] A healthy, consenting adult self-administered the entire bottle of 60 milligrams of 2-[(1R,6R)-6-isopropenyl-3-methylcyclohex-2-en-1-yl]-3-hydroxy-5-pentylphenolate in water orally over 5 to 10 minutes. […] The individual described the psychoactive effect as a pleasant sensation accompanied by both an enhanced ability to focus and elevated alertness.
Approximately 30 milligrams of 2-[(1R,6R)-6-isopropenyl-3-methylcyclohex-2-en-1-yl]-3-hydroxy-5-pentylphenolate prepared from crude industrial hemp extract was dissolved in water, buffered to a pH of 9.1, and added to each of four 296 milliliter bottles of DASANI® purified water. […] Four healthy, consenting adults orally self-administered varying amounts of the four solutions over 5 to 10 minutes.

[3] = Removal of ethanol in a vacuum oven up to 157° C. (Example 15); type: physicochemical; conditions: oven under vacuum, ramped to 157° C.; purple taffy-like product
Procedure: 372 grams of crude industrial hemp extract containing approximately 65% cannabidiol was dissolved in ethanol at a weight ratio of 1:2 crude to ethanol. 43.2 grams of potassium hydroxide was slowly added to the hemp extract in ethanol, and the solution was stirred while heating at 55° C. The solution was then placed in an oven under vacuum and slowly ramped to a temperature of 157° C. over the course of approximately 1 hour, at which time heating was discontinued. The solution was then left in the oven under vacuum overnight.
The product produced by ethanol removal in an oven under vacuum was purple with a taffy-like consistency indicative of polymer formation. The product lacked appreciable solubility in water.

[4] = Commercial viability of beverages: phenolate solution added to bottled water (Example 21); type: physicochemical
Procedure: 20 milliliters of water was removed from a 1 liter bottle of ESSENTIA® OVERACHIEVING H2O®. ESSENTIA® OVERACHIEVING H2O® contains purified water, sodium bicarbonate, dipotassium phosphate, magnesium sulfate, and calcium chloride, and its pH was determined to be about 9.5. The 20 milliliters of removed water was replaced with 20 milliliters of the 20 gram-per-liter solution of 2-[(1R,6R)-6-isopropenyl-3-methylcyclohex-2-en-1-yl]-3-hydroxy-5-pentylphenolate, which is described in Example 19, and the bottle was sealed using the screw-cap top of the bottle to produce a sealed container containing approximately 400 milligrams of 2-[(1R,6R)-6-isopropenyl-3-methylcyclohex-2-en-1-yl]-3-hydroxy-5-pentylphenolate. The pH of the liquid was measured and determined to be about 10.
5 milliliters of water was removed from a 500 milliliter bottle of DASANI® purified water. DANSANI® purified water contains purified water, magnesium sulfate, potassium chloride, and sodium chloride, and its pH was determined to be about 7.0. The 5 milliliters of removed water was replaced with 5 milliliters of the 20 gram-per-liter solution of 2-[(1R,6R)-6-isopropenyl-3-methylcyclohex-2-en-1-yl]-3-hydroxy-5-pentylphenolate, which is described in Example 19, and the bottle was sealed using the screw-cap top of the bottle to produce a sealed container containing approximately 100 milligrams of 2-[(1R,6R)-6-isopropenyl-3-methylcyclohex-2-en-1-yl]-3-hydroxy-5-pentylphenolate. The pH of the liquid was measured and determined to be about 9.5.
0.5 milliliters of water was removed from a 500 milliliter bottle of DASANI® purified water. […] The pH of the liquid was measured and determined to be about 8.5.

[5] = Third-party HPLC cannabinoid profile of olive oil extract of the aqueous solution (Example 24); type: physicochemical
Procedure: Pure cannabidiol was deprotonated and dissolved in water using a strategy similar to those described in Examples 16 and 19. Acetic acid was then added to 100 milliliters of the water, dropwise, until the purple color disappeared to reform cannabidiol. Reprotonated cannabidiol was extracted from the water using 4 milliliters of olive oil. Two 1 milliliter samples of the olive oil were sent to Botanacor Laboratories (Boulder, Colo.) for cannabinoid profile analysis using an Agilent Technologies (Santa Clara, Calif.) High Performance Liquid Chromatography instrument with a diode array detector. Botanacor Laboratories is ISO/IEC 17025 accredited for cannabinoid potency determination.

[6] = Adjusting the pH of the phenolate emulsion to 9.1 with sodium bicarbonate (Examples 7 and 8); type: physicochemical; conditions: emulsion adjusted to pH 9.1, color change and lipid phase separation
Procedure: 1.65 grams of carbon-filtered industrial hemp extract comprising approximately 65% cannabidiol was dissolved in 10 milliliters of 420 millimolar potassium hydroxide in ethanol to convert the cannabidiol into 2-[(1R,6R)-6-isopropenyl-3-methylcyclohex-2-en-1-yl]-3-hydroxy-5-pentylphenolate.
1 gram of cannabidiol isolate was dissolved in 10 milliliters of 380 millimolar potassium hydroxide in ethanol to convert the cannabidiol into 2-[(1R,6R)-6-isopropenyl-3-methylcyclohex-2-en-1-yl]-3-hydroxy-5-pentylphenolate.

[7] = Approximate pKa of cannabidiol by color at varying sodium bicarbonate (Example 20); type: physicochemical; conditions: from color change at pH 8.0 and 8.3, read-out: pKa of cannabidiol in dilute aqueous solution
Procedure: This example confirms that 2-[(1R,6R)-6-isopropenyl-3-methylcyclohex-2-en-1-yl]-3-hydroxy-5-pentylphenolate is viable for inclusion in beverages formulated for human consumption. 0.5 milliliters of the 20 gram-per-liter solution of 2-[(1R,6R)-6-isopropenyl-3-methylcyclohex-2-en-1-yl]-3-hydroxy-5-pentylphenolate described in Example 19 was diluted with 9.5 milliliters of distilled water comprising varying concentrations of sodium bicarbonate, and color was monitored as shown in Table 2. pH's were confirmed by multiple different measurements.
A color change was visually apparent at a pH of 8.0, and a subtle color change was visually apparent at pH of 8.3.

[8] = Dissolving salts of the phenolate in water (Examples 14 and 17); type: physicochemical; conditions: salt from 1.4 grams cannabidiol, dried under vacuum; 90 milliliters
Procedure: 1.4 grams of pure cannabidiol was dissolved in 10 milliliters of 0.5 molar potassium hydroxide in ethanol to convert the cannabidiol into 2-[(1R,6R)-6-isopropenyl-3-methylcyclohex-2-en-1-yl]-3-hydroxy-5-pentylphenolate. A potassium salt of 2-[(1R,6R)-6-isopropenyl-3-methylcyclohex-2-en-1-yl]-3-hydroxy-5-pentylphenolate was formed by drying the ethanol solution under vacuum overnight. 90 milliliters of 100 millimolar aqueous sodium carbonate was added to the potassium salt of 2-[(1R,6R)-6-isopropenyl-3-methylcyclohex-2-en-1-yl]-3-hydroxy-5-pentylphenolate.
This example describes a successful attempt to produce a salt of 2-[(1R,6R)-6-isopropenyl-3-methylcyclohex-2-en-1-yl]-3-hydroxy-5-pentylphenolate that readily dissolves in water. A first aliquot from Example 16 was lyophilized to produce salts including a potassium 2-[(1R,6R)-6-isopropenyl-3-methylcyclohex-2-en-1-yl]-3-hydroxy-5-pentylphenolate salt and a sodium 2-[(1R,6R)-6-isopropenyl-3-methylcyclohex-2-en-1-yl]-3-hydroxy-5-pentylphenolate salt. […] The water was centrifuged to remove undissolved salt and to produce an aqueous solution of 2-[(1R,6R)-6-isopropenyl-3-methylcyclohex-2-en-1-yl]-3-hydroxy-5-pentylphenolate concentrate for inclusion in beverages.

[9] = approximately 60 milligrams in 296 mL water, pH 9.1, oral over 5 to 10 minutes, one adult

C=C(C)[C@@H]1CCC(C)=C[C@H]1c1c(O)cc(CCCCC)cc1O [2-[(1R,6R)-6-isopropenyl-3-methylcyclohex-2-en-1-yl]-3-hydroxy-5-pentylphenolate]
color change from purple to colorless ([1]; pH's of 9.1 and above, 0.1 M carbonate/bicarbonate buffer): No color change
onset of a perceptible psychoactive effect [2, 9]: within minutes of ingestion
time of marked perceptible psychoactive effect following ingestion [2, 9]: approximately 30 minutes
individuals reporting rapid onset of a perceptible psychoactive effect within minutes of ingestion ([2]; approximately 100 milligrams per liter, pH 9.1, varying amounts, oral over 5 to 10 minutes, four adults): Three of the four individuals
time to psychoactive effects after ingestion ([2]; dissolved in water, orally administered): less than 5 minutes
stability at high temperatures [3]: unstable at high temperatures
appearance of the liquid ([4]; approximately 10 milligrams in 500 milliliter DASANI water, pH about 8.5): transparent and lacked discernable color
appearance of the liquid ([4]; approximately 100 milligrams in 500 milliliter DASANI water, pH about 9.5): transparent and purple
appearance of the liquid ([4]; approximately 400 milligrams in 1 liter ESSENTIA water, pH about 10): purple and transparent
concentration dissolved in water ([5]; worked out from the olive oil samples): about 78 milligrams per liter

C=C(C)[C@@H]1CCC(C)=C[C@H]1c1c(O)cc(CCCCC)cc1O [cannabidiol, 2-[(1R,6R)-6-isopropenyl-3-methylcyclohex-2-en-1-yl]-5-pentylbenzene-1,3-diol]
pKa ([6]; Example 7, from carbon-filtered industrial hemp extract, read-out: pKa of cannabidiol in water): > 9.1
pKa of cannabidiol in water ([6]; Example 8, from cannabidiol isolate): greater than 9.1
pKa [7]: 8 to 8.5
pKa ([1]; Example 19, dilute aqueous solutions, read-out: pKa of cannabidiol): < 9.1
other cannabinoids in the olive oil samples ([5]; HPLC with diode array detector): did not detect any other cannabinoid
cannabidiol content of olive oil samples ([5]; reprotonated with acetic acid, 100 mL water extracted with 4 mL olive oil, two samples, HPLC): 0.18 % by weight and 0.21 % by weight

C=C(C)[C@@H]1CCC(C)=C[C@H]1c1c([O-])cc(CCCCC)cc1O.[K+] [potassium salt of 2-[(1R,6R)-6-isopropenyl-3-methylcyclohex-2-en-1-yl]-3-hydroxy-5-pentylphenolate]
dissolution in 100 millimolar aqueous sodium carbonate [8]: the majority of the salt remained in the solid phase
